# Activity calls are given as the source filed them. No cut-off for these calls is given here.
# Molecular target: Cystic fibrosis transmembrane conductance regulator (Homo sapiens) (UniProt P13569)
# Experiment: Corrector activity at human CFTR deltaF508 mutant expressed in FRT cells assessed as iodide influx at 25 uM
# Assay type: cell-based
# Sequence of Cystic fibrosis transmembrane conductance regulator (Homo sapiens) (P13569 whole entry, looked up): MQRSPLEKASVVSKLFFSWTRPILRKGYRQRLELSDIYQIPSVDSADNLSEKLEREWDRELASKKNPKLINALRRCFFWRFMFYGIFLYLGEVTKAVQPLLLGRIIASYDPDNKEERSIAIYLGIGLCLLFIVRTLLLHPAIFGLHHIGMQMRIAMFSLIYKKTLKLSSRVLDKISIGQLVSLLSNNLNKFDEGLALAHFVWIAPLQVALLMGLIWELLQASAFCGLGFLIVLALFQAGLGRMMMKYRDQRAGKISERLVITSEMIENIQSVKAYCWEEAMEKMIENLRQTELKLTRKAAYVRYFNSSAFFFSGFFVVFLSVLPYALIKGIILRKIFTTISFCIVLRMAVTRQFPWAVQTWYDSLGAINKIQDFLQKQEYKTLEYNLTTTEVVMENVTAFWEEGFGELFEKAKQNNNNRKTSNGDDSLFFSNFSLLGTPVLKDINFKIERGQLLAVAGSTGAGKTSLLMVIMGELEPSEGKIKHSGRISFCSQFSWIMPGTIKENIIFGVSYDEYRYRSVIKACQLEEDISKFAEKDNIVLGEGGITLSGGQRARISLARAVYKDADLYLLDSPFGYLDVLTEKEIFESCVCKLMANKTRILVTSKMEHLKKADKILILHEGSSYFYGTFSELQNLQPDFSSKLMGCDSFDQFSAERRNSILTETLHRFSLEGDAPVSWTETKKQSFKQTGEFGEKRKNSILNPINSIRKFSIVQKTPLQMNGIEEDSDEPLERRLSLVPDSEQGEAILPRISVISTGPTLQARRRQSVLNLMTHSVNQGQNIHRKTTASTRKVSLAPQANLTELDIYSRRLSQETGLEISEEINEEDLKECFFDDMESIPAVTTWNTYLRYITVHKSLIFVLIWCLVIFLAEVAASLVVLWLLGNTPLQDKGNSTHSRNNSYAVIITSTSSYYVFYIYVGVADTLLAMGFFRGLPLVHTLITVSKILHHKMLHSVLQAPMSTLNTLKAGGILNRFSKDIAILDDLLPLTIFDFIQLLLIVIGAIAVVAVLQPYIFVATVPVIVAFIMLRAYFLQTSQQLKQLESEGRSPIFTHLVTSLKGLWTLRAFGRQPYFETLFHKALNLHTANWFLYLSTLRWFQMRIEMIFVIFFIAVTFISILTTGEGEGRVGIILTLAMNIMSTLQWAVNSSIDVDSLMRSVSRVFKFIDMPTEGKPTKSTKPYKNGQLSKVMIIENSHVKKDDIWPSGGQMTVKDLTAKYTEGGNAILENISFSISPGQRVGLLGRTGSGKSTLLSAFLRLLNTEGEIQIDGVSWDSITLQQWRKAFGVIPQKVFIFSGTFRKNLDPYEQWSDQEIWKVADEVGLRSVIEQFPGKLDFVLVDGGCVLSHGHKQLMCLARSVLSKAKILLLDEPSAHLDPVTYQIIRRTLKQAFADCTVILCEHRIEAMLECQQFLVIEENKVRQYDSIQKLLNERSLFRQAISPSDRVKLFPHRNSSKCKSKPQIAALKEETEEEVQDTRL
row,SMILES,Activity
1,COc1ccc(Cl)cc1Nc1nc(-c2cnc(NC(=O)C(C)(C)C)s2)cs1,Active
2,COc1ccc(Cl)cc1Nc1nc(-c2cccc(NC(=O)C(C)(C)C)c2)cs1,inactive
3,COc1ccc(Cl)cc1Nc1nc(C)c(-c2csc(NC(=O)C(C)(C)C)n2)s1,inactive
4,COc1ccc(Cl)cc1Nc1nc(-c2cccc(NC(=O)C(C)(C)C)c2)c(C)s1,inactive
5,COc1ccc(Cl)cc1Nc1nc(-c2sc(NC(=O)C(C)(C)C)nc2C)cs1,Active
6,COc1ccc(Cl)cc1Nc1nc2c(s1)CCCc1nc(NC(=O)C(C)(C)C)sc1-2,Active

# From ChEMBL document CHEMBL1140116, “Potent s-cis-locked bithiazole correctors of DeltaF508 cystic fibrosis transmembrane conductance regulator cellular processing for cystic fibrosis therapy” (J Med Chem, 2008)
